Columns and labels:
[1] = Treatment emergent adverse events in opioid-dependent participants (Phase IB)
[2] = Plasma noribogaine pharmacokinetics after ascending single oral doses in healthy volunteers; assay type: in vivo, human; conditions: for mean AUC/24 hr / mean AUC/24: fasting, serum; for CL/F: fasted healthy volunteers, mean (SD), n = 6
From the text: Thirty-six healthy, drug-free male volunteers, aged between 18-55 years, were enrolled in and completed the study. This was an ascending single-dose, placebo-controlled, randomized double blind, parallel group study. Mean (SD) age was 22.0 (3.3) years, mean (SD) height was 1.82 (0.08) m, and mean (SD) weight was 78.0 (9.2) kg. Twenty-six subjects were Caucasian, 3 were Asian, 1 Maori, 1 Pacific Islander, and 5 Other. The protocol for this study was approved by the Lower South Regional Ethics Committee (LRS/12/06/015), and the study was registered with the Australian New Zealand Clinical Trial Registry (ACTRN12612000821897). All subjects provided signed informed consent prior to enrolment, and were assessed as suitable to participate based on review of medical history, physical examination, safety laboratory tests, vital signs and ECG.
Within each dose level, 6 participants were randomized to receive noribogaine and 3 to receive placebo, based on a computer-generated random code. Dosing began with the lowest noribogaine dose, and subsequent cohorts received the next highest dose after the safety, tolerability, and blinded pharmacokinetics of the completed cohort were reviewed and dose-escalation approved by an independent Data Safety Monitoring Board. Blinded study drug was administered as a capsule with 240 ml of water after an overnight fast of at least 10 hours. […] Participants were confined to the study site from 12 hours prior to drug administration, until 72 hours post-dose, and there were subsequent outpatient assessments until 216 hours post-dose.
Blood was obtained for pharmacokinetic assessments pre-dose and then at 0.25, 0.5, 0.75, 1.0, 1.25, 1.5, 2, 2.5, 3, 3.5, 4, 4.5, 5, 5.5, 6, 7, 8, 10, 12, 14, 18, 24, 30, 36, 48, 60, 72, 96, 120, 168 and 216 hours post-dose. Samples were centrifuged and plasma stored at −70° C. until analyzed. Block 24 hour urine collections were obtained following study drug administration for the 30 and 60 mg cohorts. Aliquots were frozen at −20° C. until analyzed.
Plasma noribogaine concentrations were determined in the 3 mg and 10 mg dose groups using a validated, sensitive LCMSMS method. Sample preparation involved double extraction of basified plasma samples with tert-butyl methyl ether, drying the samples under a stream of nitrogen and reconstitution of sample with acetonitrile:B.P. water (5:95, v/v) containing 0.1% (v/v) formic acid. The compounds were separated by a 150×2.0 mm Luna 5 μm C18 column and detected with a triple-quadrupole API 4000 or 5000 mass spectrometer using electrospray ionization in positive mode and multiple reaction monitoring. Noribogaine-d4 was used as the internal standard. The precursor-product ion transition values for noribogaine were m/z 297.6→122.3, and for the internal standard noribogaine-d4 m/z 301.1→122.2. Analyst® software was used for data acquisition and processing. The ratio of the peak area of noribogaine to the internal standard noribogaine-d4 was used for calibration and measurement of the unknown concentration of noribogaine. The lower limit of quantification (LLOQ) was 0.025 ng/ml noribogaine. The calibration curve was between 0.025 and 25.600 ng/ml noribogaine. Mobile phase A was acetonitrile:B.P. water (5:95, v/v) containing 0.1% (v/v) formic acid, and mobile phase B was acetonitrile:B.P. water (95:5, v/v) containing 0.1% (v/v) formic acid. Total run time was 6 minutes. Binary flow: Initial concentration was 8% mobile phase B; hold at 8% mobile phase B for 0.5 minutes and linear rise to 90% mobile phase B over 1.5 minutes; hold at 90% mobile phase B for 1 minute and then drop back to 8% mobile phase B over 0.01 minute. Equilibrate system for 3 minutes. Total run time was 6 minutes. Within- and between-day assay precision was <9%, and within- and between-day assay accuracy was <9%.
Plasma noribogaine concentrations were determined in the 30 mg and 60 mg dose groups using a validated, sensitive LCMSMS method. […]

CC[C@H]1CC2C[C@H]3c4[nH]c5ccc(O)cc5c4CCN(C2)C13 [Noribogaine, noribogaine]
frequency of headaches ([1]; 60 mg treatment group): frequent
frequency of headaches ([1]; 120 mg and 180 mg dose groups): attenuated
hallucinatory effects ([1]; 60-180 mg, opioid-dependent participants): no hallucinatory effects
Treatment Emergent AE: Catheter Site Infection ([1]; single 60 mg dose, N = 6): 0
Treatment Emergent AE: Catheter Site Pain ([1]; single 60 mg dose, N = 6): 0
Treatment Emergent AE: Catheter Site Related Reaction ([1]; single 60 mg dose, N = 6): 0
Treatment Emergent AE: Cellulitis ([1]; single 60 mg dose, N = 6): 0
Treatment Emergent AE: Diarrhoea ([1]; single 60 mg dose, N = 6): 0
Treatment Emergent AE: Dry Mouth ([1]; single 60 mg dose, N = 6): 0
Treatment Emergent AE: Ear and Labyrinth Disorders ([1]; single 60 mg dose, N = 6): 0
Treatment Emergent AE: Epistaxis ([1]; single 60 mg dose, N = 6): 0
Treatment Emergent AE: Euphoric Mood ([1]; single 60 mg dose, N = 6): 0
Treatment Emergent AE: General Disorders and Administration Site Conditions ([1]; single 60 mg dose, N = 6): 0
Treatment Emergent AE: Hyperaesthesia ([1]; single 60 mg dose, N = 6): 0
Treatment Emergent AE: Infections and Infestations ([1]; single 60 mg dose, N = 6): 0
Treatment Emergent AE: Limb Discomfort ([1]; single 60 mg dose, N = 6): 0
Treatment Emergent AE: Malaise ([1]; single 60 mg dose, N = 6): 0
Treatment Emergent AE: Nausea ([1]; single 60 mg dose, N = 6): 0
Treatment Emergent AE: Oropharyngeal Pain ([1]; single 60 mg dose, N = 6): 0
Treatment Emergent AE: Pseudoparalysis ([1]; single 60 mg dose, N = 6): 0
Treatment Emergent AE: Respiratory, Thoracic and Mediastinal Disorders ([1]; single 60 mg dose, N = 6): 0
Treatment Emergent AE: Rhinorrhoea ([1]; single 60 mg dose, N = 6): 0
Treatment Emergent AE: Skin Discomfort ([1]; single 60 mg dose, N = 6): 0
Treatment Emergent AE: Skin Irritation ([1]; single 60 mg dose, N = 6): 0
Treatment Emergent AE: Skin and Subcutaneous Tissue Disorders ([1]; single 60 mg dose, N = 6): 0
Treatment Emergent AE: Somnoience ([1]; single 60 mg dose, N = 6): 0
Treatment Emergent AE: Tinnitus ([1]; single 60 mg dose, N = 6): 0
Treatment Emergent AE: Tremor ([1]; single 60 mg dose, N = 6): 0
Treatment Emergent AE: Urinary Tract Infection ([1]; single 60 mg dose, N = 6): 0
Treatment Emergent AE: Vomiting ([1]; single 60 mg dose, N = 6): 0
Treatment Emergent AE: Back Pain ([1]; single 120 mg dose, N = 6): 0
Treatment Emergent AE: Catheter Site Infection ([1]; single 120 mg dose, N = 6): 0
Treatment Emergent AE: Catheter Site Related Reaction ([1]; single 120 mg dose, N = 6): 0
Treatment Emergent AE: Depressed Mood ([1]; single 120 mg dose, N = 6): 0
Treatment Emergent AE: Dry Eye ([1]; single 120 mg dose, N = 6): 0
Treatment Emergent AE: Dyspepsia ([1]; single 120 mg dose, N = 6): 0
Treatment Emergent AE: Euphoric Mood ([1]; single 120 mg dose, N = 6): 0
Treatment Emergent AE: Limb Discomfort ([1]; single 120 mg dose, N = 6): 0
Treatment Emergent AE: Malaise ([1]; single 120 mg dose, N = 6): 0
Treatment Emergent AE: Musculoskeletal and Connective Tissue Disorders ([1]; single 120 mg dose, N = 6): 0
Treatment Emergent AE: Psychiatric Disorders ([1]; single 120 mg dose, N = 6): 0
Treatment Emergent AE: Somnoience ([1]; single 120 mg dose, N = 6): 0
Treatment Emergent AE: Urinary Tract Infection ([1]; single 120 mg dose, N = 6): 0
Treatment Emergent AE: Catheter Site Infection ([1]; single 180 mg dose, N = 6): 0
Treatment Emergent AE: Catheter Site Pain ([1]; single 180 mg dose, N = 6): 0
Treatment Emergent AE: Depressed Mood ([1]; single 180 mg dose, N = 6): 0
Treatment Emergent AE: Diarrhoea ([1]; single 180 mg dose, N = 6): 0
Treatment Emergent AE: Dry Eye ([1]; single 180 mg dose, N = 6): 0
Treatment Emergent AE: Dyspepsia ([1]; single 180 mg dose, N = 6): 0
Treatment Emergent AE: Ear and Labyrinth Disorders ([1]; single 180 mg dose, N = 6): 0
Treatment Emergent AE: Epistaxis ([1]; single 180 mg dose, N = 6): 0
Treatment Emergent AE: Euphoric Mood ([1]; single 180 mg dose, N = 6): 0
Treatment Emergent AE: Hyperaesthesia ([1]; single 180 mg dose, N = 6): 0
Treatment Emergent AE: Malaise ([1]; single 180 mg dose, N = 6): 0
Treatment Emergent AE: Oropharyngeal Pain ([1]; single 180 mg dose, N = 6): 0
Treatment Emergent AE: Pseudoparalysis ([1]; single 180 mg dose, N = 6): 0
Treatment Emergent AE: Psychiatric Disorders ([1]; single 180 mg dose, N = 6): 0
Treatment Emergent AE: Respiratory, Thoracic and Mediastinal Disorders ([1]; single 180 mg dose, N = 6): 0
Treatment Emergent AE: Rhinorrhoea ([1]; single 180 mg dose, N = 6): 0
Treatment Emergent AE: Skin Discomfort ([1]; single 180 mg dose, N = 6): 0
Treatment Emergent AE: Skin Irritation ([1]; single 180 mg dose, N = 6): 0
Treatment Emergent AE: Skin and Subcutaneous Tissue Disorders ([1]; single 180 mg dose, N = 6): 0
Treatment Emergent AE: Somnoience ([1]; single 180 mg dose, N = 6): 0
Treatment Emergent AE: Tinnitus ([1]; single 180 mg dose, N = 6): 0
Treatment Emergent AE: Tremor ([1]; single 180 mg dose, N = 6): 0
Dose-proportionality of Cmax and AUC ([2]; 3-60 mg single oral doses, healthy volunteers): increased linearly with dose
time of peak concentrations after oral dosing ([2]; across 3-60 mg dose groups, healthy volunteers): 2 to 3 h
Mean half-life estimates ([2]; across dose groups (3-60 mg), healthy volunteers): 28 to 50 h
mean AUC/24 hr ([2]; single dose of 3 mg free base): 3.1 ng/mL
mean AUC/24 hr ([2]; single dose of 10 mg free base): 10.6 ng/mL
mean AUC/24 ([2]; single dose of 30 mg free base): 29.2 ng/mL
mean AUC/24 ([2]; single dose of 60 mg free base): 61 ng/mL
CL/F ([2]; single oral 3 mg dose): 41.4 (7.0) L/h
CL/F ([2]; single oral 10 mg dose): 42.3 (12.0) L/h
CL/F ([2]; single oral 30 mg dose): 46.9 (16.4) L/h
CL/F ([2]; single oral 60 mg dose): 34.0 (11.4) L/h

Source: US9549935B2, “Methods and compositions for treating migraines using noribogaine” (DemeRx, Inc., priority 2014, dated 2017)
